The conditions of data set [1]: subchronic; duration: 90 days.
[2] abbreviates: subchronic, duration: 90 days, oral, diet.

`Cc1occc1SSc1ccoc1C` [Bis(2-methyl-3-furyl)disulfide] gave an NOEL in the data set with Rattus norvegicus (setting [2]) of 0.45 mg/kg-day. With `Cc1cc(SC(=O)CC(C)C)c(C)o1` [2,5-Dimethyl-3-thioisovalerylfuran], the NOEL in the data set with Rattus norvegicus (subchronic, duration: 90 days) is 0.73 mg/kg-day.

Turning to `CCSC(C)=O` [S-Ethyl thiolacetate], the no-observed-adverse-effect level (NOAEL) in data set [1] stood at 6.7 mg/kg-day. In the data set with Rattus norvegicus (setting [2]), `CC(=O)CC(C)SCc1ccco1` (centres undefined) [4-{[(Furan-2-yl)methyl]sulfanyl}pentan-2-one] yielded a no observed adverse effect level (NOAEL) of 3.76 mg/kg-day. In turn, `Cc1cc(SSc2cc(C)oc2C)c(C)o1` [Furan, 3,3'-dithiobis[2,5-dimethyl-] gave an NOEL with Rattus norvegicus (setting [2]) of 0.45 mg/kg-day. In the data set with Rattus norvegicus (chronic, duration: 1 years, oral, diet), `CC(=O)SC1=C(C)OCC1` [2-Methyl-3-thioacetoxy-4,5-dihydrofuran] had an NOEL of 8.3 mg/kg-day. The compound `CCOC(=O)CCSCc1ccco1` [Ethyl 3-(furfurylthio)propionate] showed an NOEL in the data set on Rattus norvegicus (subchronic, duration: 90 days) of 17 mg/kg-day. Still for that read-out and setting: for `Cc1occc1SSSSc1ccoc1C` [Bis(2-methyl-3-furyl) tetrasulfide] the value was 0.56 mg/kg-day. Compound `CSC(=O)c1ccco1` [2-Furancarbothioic acid, S-methyl ester] gave an NOAEL in data set [1] of 6.7 mg/kg-day.

Source of the values: EPA's ToxValDB 9.5 (doi:10.2903/j.efsa.2010.1406).
